Experiments:
[1] = molecular target: T1, Amyloid-beta precursor protein (Homo sapiens, UniProt P05067); experiment: Inhibition of amyloid beta (1 to 42) (unknown origin) aggregation at 50 uM measured after 3 hrs by Thioflavin T-based fluorometric assay
[2] = molecular target: T1, Amyloid-beta precursor protein; experiment: Inhibition of human amyloid beta (1 to 42) aggregation at 100 uM measured after 72 hrs by Thioflavin T-based fluorometric assay
Acetylcholinesterase = Acetylcholinesterase (Homo sapiens, UniProt P22303); experiment: Inhibition of human AChE assessed as hydrolytic activity using acetylthiocholine iodide as substrate measured for 15 mins by Ellmans assay
Sequence of Acetylcholinesterase (P22303 whole entry): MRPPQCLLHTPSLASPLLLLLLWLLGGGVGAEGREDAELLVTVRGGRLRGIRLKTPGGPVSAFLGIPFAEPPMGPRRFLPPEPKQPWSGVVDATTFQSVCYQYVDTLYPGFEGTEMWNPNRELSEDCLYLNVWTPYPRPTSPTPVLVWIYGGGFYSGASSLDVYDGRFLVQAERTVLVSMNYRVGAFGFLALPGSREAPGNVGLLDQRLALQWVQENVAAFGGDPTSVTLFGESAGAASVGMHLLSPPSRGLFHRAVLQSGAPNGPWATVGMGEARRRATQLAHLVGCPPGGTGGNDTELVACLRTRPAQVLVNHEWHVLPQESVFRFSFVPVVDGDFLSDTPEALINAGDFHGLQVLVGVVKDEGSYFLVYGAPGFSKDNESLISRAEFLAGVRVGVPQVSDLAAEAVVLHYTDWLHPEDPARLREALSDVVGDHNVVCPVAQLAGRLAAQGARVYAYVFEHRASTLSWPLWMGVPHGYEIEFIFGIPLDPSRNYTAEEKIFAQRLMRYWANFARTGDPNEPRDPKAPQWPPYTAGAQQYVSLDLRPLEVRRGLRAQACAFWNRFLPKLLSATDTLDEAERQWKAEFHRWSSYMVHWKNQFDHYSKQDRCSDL

Cholinesterase = Cholinesterase (Homo sapiens, UniProt P06276); experiment: Inhibition of human BuChE assessed as hydrolytic activity using butyrylthiocholine iodide as substrate measured for 15 mins by Ellmans assay
Sequence of Cholinesterase (P06276 whole entry): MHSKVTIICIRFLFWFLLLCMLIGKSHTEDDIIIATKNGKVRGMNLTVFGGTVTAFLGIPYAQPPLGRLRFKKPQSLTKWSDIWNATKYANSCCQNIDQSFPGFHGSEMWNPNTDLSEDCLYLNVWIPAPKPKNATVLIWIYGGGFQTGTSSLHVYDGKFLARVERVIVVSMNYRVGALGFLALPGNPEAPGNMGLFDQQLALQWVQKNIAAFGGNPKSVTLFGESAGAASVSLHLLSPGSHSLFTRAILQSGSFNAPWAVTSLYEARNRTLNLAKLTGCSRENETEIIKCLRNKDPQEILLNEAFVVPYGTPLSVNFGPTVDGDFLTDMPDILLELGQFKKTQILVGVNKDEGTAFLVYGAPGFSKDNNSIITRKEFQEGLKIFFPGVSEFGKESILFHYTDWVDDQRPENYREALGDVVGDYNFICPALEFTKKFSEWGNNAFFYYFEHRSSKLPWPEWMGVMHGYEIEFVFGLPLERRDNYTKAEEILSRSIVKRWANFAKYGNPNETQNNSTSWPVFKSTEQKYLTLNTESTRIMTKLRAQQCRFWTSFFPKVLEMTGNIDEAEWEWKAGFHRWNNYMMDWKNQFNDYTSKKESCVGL

[3] = molecular target: T1, Amyloid-beta precursor protein; experiment: Inhibition of amyloid beta (1 to 42) (unknown origin) aggregation measured after 24 hrs by Thioflavin T-based fluorometric assay

T1 sequence (P05067 whole entry): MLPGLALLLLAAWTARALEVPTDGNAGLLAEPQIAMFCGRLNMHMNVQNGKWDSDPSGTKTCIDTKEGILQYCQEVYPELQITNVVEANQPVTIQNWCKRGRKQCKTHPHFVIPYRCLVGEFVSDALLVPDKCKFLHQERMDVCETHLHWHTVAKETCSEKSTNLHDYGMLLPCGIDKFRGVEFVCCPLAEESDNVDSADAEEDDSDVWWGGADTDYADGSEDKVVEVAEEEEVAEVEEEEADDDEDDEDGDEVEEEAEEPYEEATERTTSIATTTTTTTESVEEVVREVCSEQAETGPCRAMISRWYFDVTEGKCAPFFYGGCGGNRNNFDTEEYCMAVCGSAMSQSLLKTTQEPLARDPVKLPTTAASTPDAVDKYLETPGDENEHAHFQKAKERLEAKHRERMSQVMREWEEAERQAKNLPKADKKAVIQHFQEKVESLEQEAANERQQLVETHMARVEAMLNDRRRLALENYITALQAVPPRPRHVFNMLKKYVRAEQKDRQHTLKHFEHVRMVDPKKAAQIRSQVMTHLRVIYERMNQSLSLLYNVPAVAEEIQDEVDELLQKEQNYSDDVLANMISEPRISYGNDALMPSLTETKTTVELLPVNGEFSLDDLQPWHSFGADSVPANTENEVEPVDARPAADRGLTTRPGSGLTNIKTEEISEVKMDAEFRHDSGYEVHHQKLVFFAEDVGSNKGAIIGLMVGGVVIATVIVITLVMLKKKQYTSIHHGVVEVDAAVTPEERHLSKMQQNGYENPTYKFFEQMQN

Row | SMILES | inhibition [1] [%] | IC50 [3] [µM] | inhibition [2] [%] | IC50 (Acetylcholinesterase) [µM] | IC50 (Cholinesterase) [µM]
1 | O=C(NC1C2CC3CC(C2)CC1C3)c1nc(Cc2ccccc2)cc(Oc2ccccc2)n1 (centres undefined) | 47 | – | – | – | –
2 | CC(COC(=O)c1ccc(Oc2nc(Oc3ccc(C(=O)OCC(C)N(C)C)cc3)nc(Oc3ccc(C(=O)OCC(C)N(C)C)cc3)n2)cc1)N(C)C (centres undefined) | – | – | 68.5 | 80.8 | 164
3 | C[N+](C)(C)CCOC(=O)c1ccc(Oc2nc(Oc3ccc(C(=O)OCC[N+](C)(C)C)cc3)nc(Oc3ccc(C(=O)OCC[N+](C)(C)C)cc3)n2)cc1 | – | – | 50.9 | 0.3 | 3.9
4 | COc1nc(Oc2ccc(C(=O)OCC(C)N(C)C)cc2)nc(Oc2ccc(C(=O)OCC(C)N(C)C)cc2)n1 (centres undefined) | – | – | 58.4 | 111 | > 200

Now from value to molecule, other results behind:

Row | inhibition [1] [%] | IC50 [3] [µM] | SMILES | inhibition [2] [%] | IC50 (Acetylcholinesterase) [µM] | IC50 (Cholinesterase) [µM]
5 | 71 | – | CC(C)CCNC(=O)c1cc(Cc2ccccc2)cc(Oc2ccccc2)n1 | – | – | –
6 | – | 29 | Cc1ccc(-c2cc(NCCNc3cc(-c4cccs4)[nH]n3)n[nH]2)cc1 | – | – | –
7 | – | 40.5 | Fc1ccc(-c2cc(NCCNc3cc(-c4ccc(F)cc4)[nH]n3)n[nH]2)cc1 | – | – | –
8 | – | 7.5 | CN(C)c1ccc(-c2cc(NCCNc3cc(-c4ccc(N(C)C)cc4)[nH]n3)n[nH]2)cc1 | – | – | –

Source: ChEMBL document CHEMBL3779862, “Amyloid cascade in Alzheimer's disease: Recent advances in medicinal chemistry” (Eur J Med Chem, 2016)
